The target of one assay is T1, Human NPY1 Receptor (Homo sapiens, UniProt P25929).
T1 sequence (P25929 1-384): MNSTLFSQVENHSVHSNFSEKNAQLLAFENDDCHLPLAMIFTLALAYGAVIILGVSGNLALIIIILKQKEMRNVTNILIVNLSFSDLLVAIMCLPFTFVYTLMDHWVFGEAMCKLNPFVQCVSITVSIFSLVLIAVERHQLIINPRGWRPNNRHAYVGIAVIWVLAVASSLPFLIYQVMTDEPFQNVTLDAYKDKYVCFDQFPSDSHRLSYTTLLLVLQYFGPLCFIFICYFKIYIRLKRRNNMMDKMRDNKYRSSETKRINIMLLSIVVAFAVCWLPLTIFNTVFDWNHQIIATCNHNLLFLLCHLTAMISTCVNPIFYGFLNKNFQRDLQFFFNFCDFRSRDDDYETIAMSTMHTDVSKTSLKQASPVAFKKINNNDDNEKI
The experiment in a line: Human NPY1 Receptor Binding Assay. The note with it: SK-N-MC cells, [125I]PYY; read-out: hNPY1 IC50.

The next assay concerns the target T2, Human NPY5 Receptor (Homo sapiens, UniProt Q15761).
T2 sequence (Q15761 1-445): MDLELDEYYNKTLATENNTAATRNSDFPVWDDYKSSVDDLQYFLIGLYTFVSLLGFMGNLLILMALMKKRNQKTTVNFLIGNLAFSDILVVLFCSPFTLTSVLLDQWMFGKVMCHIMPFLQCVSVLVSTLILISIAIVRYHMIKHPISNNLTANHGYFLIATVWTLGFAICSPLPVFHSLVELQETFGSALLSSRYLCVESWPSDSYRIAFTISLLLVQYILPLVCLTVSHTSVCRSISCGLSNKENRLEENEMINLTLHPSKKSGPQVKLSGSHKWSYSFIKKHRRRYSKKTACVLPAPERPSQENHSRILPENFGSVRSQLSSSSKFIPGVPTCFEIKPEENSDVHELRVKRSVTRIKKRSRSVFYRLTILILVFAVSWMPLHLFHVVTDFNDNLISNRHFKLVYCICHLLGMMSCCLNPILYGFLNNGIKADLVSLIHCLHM
The experiment in a line: Human NPY5 Receptor Binding Assay. The following applies: [125I]PYY; read-out: hNPY5 IC50.

Another assay addresses Human NPY4/PP1 receptor (Homo sapiens, UniProt P50391). Kind of assay: Human NPY4/PP1 Receptor Binding Assay. The following applies: [125I]human PP; read-out: hNPY4 IC50.
The target of the next assay is T3, Human NPY2 receptor (Homo sapiens, UniProt P49146).
T3 sequence (P49146 1-381): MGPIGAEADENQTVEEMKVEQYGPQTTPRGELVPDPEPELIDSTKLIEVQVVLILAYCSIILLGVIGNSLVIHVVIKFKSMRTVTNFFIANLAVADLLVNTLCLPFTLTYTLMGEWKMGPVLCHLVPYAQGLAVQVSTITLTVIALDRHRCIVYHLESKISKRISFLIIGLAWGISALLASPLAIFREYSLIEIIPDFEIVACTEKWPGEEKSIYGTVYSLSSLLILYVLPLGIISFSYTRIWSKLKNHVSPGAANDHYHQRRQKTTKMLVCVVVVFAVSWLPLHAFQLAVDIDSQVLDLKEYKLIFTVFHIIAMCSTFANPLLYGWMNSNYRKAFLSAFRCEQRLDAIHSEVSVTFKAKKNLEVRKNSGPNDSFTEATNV
The experiment in a line: Human NPY2 Receptor Binding Assay. The following applies: [125I]PYY; read-out: hPPY2 IC50.

The target in a further assay is T4, Rat NPY5 Receptor (Rattus norvegicus, UniProt Q63634).
T4 sequence (Q63634 1-445): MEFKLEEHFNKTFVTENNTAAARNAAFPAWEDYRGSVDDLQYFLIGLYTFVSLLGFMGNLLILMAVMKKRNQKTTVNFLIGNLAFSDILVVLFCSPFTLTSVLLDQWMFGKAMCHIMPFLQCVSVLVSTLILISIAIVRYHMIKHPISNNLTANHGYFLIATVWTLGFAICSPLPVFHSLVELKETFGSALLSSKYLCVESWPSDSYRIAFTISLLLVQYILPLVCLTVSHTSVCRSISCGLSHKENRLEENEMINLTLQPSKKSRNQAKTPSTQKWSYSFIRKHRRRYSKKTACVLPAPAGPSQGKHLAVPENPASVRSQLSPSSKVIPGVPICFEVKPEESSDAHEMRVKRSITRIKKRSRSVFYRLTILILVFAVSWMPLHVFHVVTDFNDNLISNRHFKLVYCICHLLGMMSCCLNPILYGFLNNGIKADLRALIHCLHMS
Kind of assay: Rat NPY5 Receptor Binding Assay. The note with it: for pIC50: [125I]PYY, read-out: rNPY5 IC50; for inhibition at 10 µM: values marked *, read-out: rNPY5 percent inhibition at 10 μM.

Each structure is given as a SMILES string. pIC50: −log10 of the molar value.

Sequence of Human NPY4/PP1 receptor (P50391 whole entry): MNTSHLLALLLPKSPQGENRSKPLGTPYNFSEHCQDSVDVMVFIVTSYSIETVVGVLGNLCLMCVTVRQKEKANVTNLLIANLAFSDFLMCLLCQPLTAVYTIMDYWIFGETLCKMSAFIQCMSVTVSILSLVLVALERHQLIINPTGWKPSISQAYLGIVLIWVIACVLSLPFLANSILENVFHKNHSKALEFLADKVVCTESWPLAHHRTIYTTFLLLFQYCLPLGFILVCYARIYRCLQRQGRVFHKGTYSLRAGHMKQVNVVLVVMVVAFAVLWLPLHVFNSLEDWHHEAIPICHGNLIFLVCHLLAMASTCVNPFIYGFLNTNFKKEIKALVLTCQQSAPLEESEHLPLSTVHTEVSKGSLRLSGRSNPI

For orientation: pIC50 means the IC50 on a negative log10 scale, so that one unit is a factor of ten. Turning to `Cn1nnnc1SCC(=O)Nc1ccc(OC(F)(F)F)cc1` [Compound 144, 2-(1-Methyl-1H-tetrazol-5-ylsulfanyl)-N-(4-trifluoromethoxy-phenyl)-acetamide, reference compound], the pIC50 at Human NPY1 Receptor was less than 5.30; at Human NPY5 Receptor it was 5.92; at Human NPY4/PP1 receptor, less than 5.30; on Human NPY2 receptor, less than 5.30; at Rat NPY5 Receptor, 5.85.
With `Cn1ccnc1SCC(=O)Nc1ccc(C(C)(C)C)cc1` [Compound 143, N-(4-tert-Butyl-phenyl)-2-(1-methyl-1H-imidazol-2-ylsulfanyl)-acetamide, reference compound], the pIC50 was less than 5.30 at Human NPY1 Receptor; 5.51 on Human NPY5 Receptor; less than 5.30 at Human NPY4/PP1 receptor; less than 5.30 at Human NPY2 receptor; 5.41 at Rat NPY5 Receptor.
With `CC(C)c1ccc(NC(=O)CSc2nccn2C)cc1` [Compound 155, N-(4-Isopropyl-phenyl)-2-(1-methyl-1H-imidazol-2-ylsulfanyl)-acetamide, reference compound], the pIC50 was less than 5.30 at Human NPY1 Receptor; less than 5.00 at Human NPY5 Receptor; less than 5.30 on Human NPY4/PP1 receptor; less than 5.30 on Human NPY2 receptor; less than 5.00 at Rat NPY5 Receptor.
On to `O=C(CSC1=NCCN1)Nc1ccc(Cl)cc1` [Compound 187, N-(4-Chloro-phenyl)-2-(4,5-dihydro-1H-imidazol-2-ylsulfanyl)-acetamide, reference compound], for which the pIC50 was less than 5.30 on Human NPY1 Receptor; less than 5.00 on Human NPY5 Receptor; less than 5.30 at Human NPY4/PP1 receptor; less than 5.30 on Human NPY2 receptor; less than 5.00 on Rat NPY5 Receptor.
With `O=C(CSc1n[nH]c(=O)n1-c1cccc(F)c1)Nc1ccc(Cl)cc1` [Compound 147, reference compound], the pIC50 at Human NPY1 Receptor was less than 5.30; at Human NPY5 Receptor, less than 5.00; on Human NPY4/PP1 receptor it was less than 5.30; on Human NPY2 receptor it was less than 5.30; at Rat NPY5 Receptor, less than 5.00.
Take `Cn1c(CN2C(=O)CSc3ccc(C(F)(F)F)cc32)nnc1SCC(=O)Nc1ccccc1` [Compound 152, 2-[4-Methyl-5-(3-oxo-6-trifluornmethyl-2,3-dihydro-benzo[1,4]thiazin-4-ylmethyl)-4H-[1,2,4]triazol-3-ylsulfanyl]-N-phenyl-acetamide, reference compound]: the pIC50 on Human NPY1 Receptor was less than 5.30; at Human NPY5 Receptor it was less than 5.00; at Human NPY4/PP1 receptor, less than 5.30; at Human NPY2 receptor, less than 5.30; at Rat NPY5 Receptor, less than 5.00.
Consider `Cn1c(-c2ccc(Cl)cc2)cnc1SCC(=O)Nc1ccc(Cl)cc1` [Compound 154, N-(4-Chloro-phenyl)-2-[5-(4-chloro-phenyl)-1-methyl-1H-imidazol-2-ylsulfanyl]-acetamide, reference compound], for which the pIC50 on Human NPY1 Receptor is less than 5.30; on Human NPY5 Receptor, less than 5.00; at Human NPY4/PP1 receptor, less than 5.30; on Human NPY2 receptor, less than 5.30; at Rat NPY5 Receptor, 5.00.
Take `CC(C)c1ccc(NC(=O)CSc2n[nH]c(=O)n2-c2cccc(F)c2)cc1` [Compound 141, reference compound]: the negative logarithm of the IC50 (pIC50) on Human NPY1 Receptor is less than 5.30; on Human NPY5 Receptor, 5.52; at Human NPY4/PP1 receptor it was less than 5.30; at Human NPY2 receptor, less than 5.30; at Rat NPY5 Receptor it was 5.52.
One may read the inhibition as the drop in the measured response relative to a control, in per cent. Consider `Cc1nc(-c2nnc(SCC(=O)Nc3ccc(Cl)cc3)n2C)cs1` [Compound 138, N-(4-Chloro-phenyl)-2-(4-methyl-5-(2-methyl-thiazolo-yl)-4H-[1,2,4]triazol-3-ylsulfanyl]-acetamide, reference compound], for which the pIC50 at Human NPY1 Receptor is less than 5.30; on Human NPY5 Receptor it was less than 5.00; at Human NPY4/PP1 receptor it was less than 5.30; at Human NPY2 receptor it was less than 5.30. The inhibition at 10 µM at Rat NPY5 Receptor amounted to 52%.
`Cc1cc(C)n2nc(SCC(=O)Nc3ccc(Cl)cc3)nc2n1` [Compound 137, reference compound]: the pIC50 on Human NPY1 Receptor is less than 5.30; on Human NPY5 Receptor, less than 5.00; at Human NPY4/PP1 receptor, less than 5.30; on Human NPY2 receptor it was less than 5.30; on Rat NPY5 Receptor, less than 5.00.
Consider `CCn1c(SCC(=O)Nc2ccc(Cl)cc2)nc2ccccc21` [Compound 140, N-(4-Chloro-phenyl)-2-(1-ethyl-1H-berzoimidazol-2-ylsulfanyl)-acetamide, reference compound], for which the pIC50 on Human NPY1 Receptor is less than 5.30; on Human NPY5 Receptor it was less than 5.00; on Human NPY4/PP1 receptor, less than 5.30; at Human NPY2 receptor, less than 5.30. Also, at Rat NPY5 Receptor, the inhibition at 10 µM was found to be 61%.
As to `CCOc1ccc(NC(=O)CSc2nccn2C)cc1` [Compound 156, N-(4-Ethoxy-phenyl)-2-(1-methyl-1H-imidazol-2-ylsulfanyl)-acetamide, reference compound], the negative-log IC50 (pIC50) is less than 5.30 at Human NPY1 Receptor; less than 5.00 on Human NPY5 Receptor; less than 5.30 at Human NPY4/PP1 receptor; less than 5.30 on Human NPY2 receptor; less than 5.00 at Rat NPY5 Receptor.
As to `O=C(CSc1ccccn1)Nc1ccc(C2CCCCC2)cc1` [Compound 182, N-(4-Cyclohexyl-phenyl)-2-(pyridin-2-ylsulfanyl)-acetamide, reference compound], the negative-log IC50 (pIC50) at Human NPY1 Receptor is less than 5.30; at Human NPY5 Receptor, 6.06; at Human NPY4/PP1 receptor, less than 5.30; at Human NPY2 receptor, less than 5.30; at Rat NPY5 Receptor it was 6.12.
As to `Cn1ccnc1SCC(=O)Nc1ccc(I)cc1` [Compound 145, N-(4-Iodo-phenyl)-2-(1-methyl-1H-imidazol-2-ylsulfanyl)-acetamide, reference compound], the pIC50 on Human NPY1 Receptor was less than 5.30; at Human NPY5 Receptor it was less than 5.00; at Human NPY4/PP1 receptor, less than 5.30; on Human NPY2 receptor, less than 5.30; on Rat NPY5 Receptor, less than 5.00.
For the molecule `Cc1ccc(SCC(=O)Nc2cccc(C#N)c2)cc1` [Compound 151, N-(3-Cyano-phenyl)-2-p-tolylsulfanyl-acetamide, reference compound], the pIC50 at Human NPY1 Receptor is less than 5.30; on Human NPY5 Receptor it was 6.62; at Human NPY4/PP1 receptor, less than 5.30; at Human NPY2 receptor it was less than 5.30; on Rat NPY5 Receptor, 6.55.
As to `Cn1ccnc1SCC(=O)Nc1ccc(-c2ccccc2)cc1` [Compound 1, N-Biphenyl-4yl-2-(1-methyl-1H-imidazol-2-ylsulfanyl)-acetamide], the pIC50 on Human NPY1 Receptor is less than 5.30; on Human NPY5 Receptor, 6.19; on Human NPY4/PP1 receptor, less than 5.30; at Human NPY2 receptor it was less than 5.00. On Rat NPY5 Receptor, the inhibition at 10 µM amounted to 95%.
On to `CN1CCN=C1SCC(=O)Nc1ccc(F)cc1` [Compound 146, N-(4-Fluoro-phenyl)-2-(1-methyl-4,5-dihydro-1H-imidazol-2-ylsulfanyl)-acetamide, reference compound], for which the pIC50 was less than 5.30 on Human NPY1 Receptor; less than 5.00 on Human NPY5 Receptor; less than 5.30 at Human NPY4/PP1 receptor; less than 5.30 at Human NPY2 receptor; less than 5.00 on Rat NPY5 Receptor.
As to `O=C(CCC(Sc1ccccc1)C(=O)Nc1ccccc1)Nc1ccccc1` (stereo not drawn) [Compound 7, 2-Phenylsulfanyl-pentanedioic acid bis-phenylamide], the pIC50 on Human NPY1 Receptor was less than 5.30; at Human NPY5 Receptor it was 5.80; on Human NPY4/PP1 receptor it was less than 5.30; at Human NPY2 receptor, less than 5.30; at Rat NPY5 Receptor, 6.36.

For the origin of these results see patent US6245817A, “NPY5 receptor antagonists and methods for using same” (Bayer Corporation, priority 1999, dated 2001).
